Key:
Homo sapiens = species on record: Homo sapiens; experiment: Inhibition of cellular cholesterol biosynthesis using human fibroblasts in tissue culture; assay type: functional, organism-based
Cricetinae gen. sp. [1] = experiment: Effect on total serum cholesterol in male hamsters at a dose of 10 mg/kg orally administered for 3 days; assay type: functional, Cricetulus griseus; settings: route oral
[2] = target: T1, Steroid 17-alpha-hydroxylase/17,20 lyase (Homo sapiens, UniProt P05093); experiment: Binding affinity for […] 17-alpha-hydroxylase
T1 sequence (P05093 whole entry): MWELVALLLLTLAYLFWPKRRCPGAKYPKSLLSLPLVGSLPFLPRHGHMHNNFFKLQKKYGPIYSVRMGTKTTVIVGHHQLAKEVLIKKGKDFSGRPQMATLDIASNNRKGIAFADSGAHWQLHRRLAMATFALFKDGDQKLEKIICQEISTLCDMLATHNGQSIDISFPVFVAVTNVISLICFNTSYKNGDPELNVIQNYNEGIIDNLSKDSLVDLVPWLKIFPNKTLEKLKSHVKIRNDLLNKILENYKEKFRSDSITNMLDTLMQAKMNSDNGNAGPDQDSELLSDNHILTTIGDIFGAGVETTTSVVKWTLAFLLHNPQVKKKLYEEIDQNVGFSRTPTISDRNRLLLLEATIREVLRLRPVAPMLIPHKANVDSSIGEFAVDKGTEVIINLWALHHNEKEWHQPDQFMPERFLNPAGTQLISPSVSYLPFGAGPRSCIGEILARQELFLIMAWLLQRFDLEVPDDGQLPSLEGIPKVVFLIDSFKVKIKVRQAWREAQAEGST

[3] = target: T2, Cytochrome P450 11B1, mitochondrial (Homo sapiens, UniProt P15538); experiment: Binding affinity for corticoid 11-beta-hydroxylase
T2 sequence (P15538 whole entry): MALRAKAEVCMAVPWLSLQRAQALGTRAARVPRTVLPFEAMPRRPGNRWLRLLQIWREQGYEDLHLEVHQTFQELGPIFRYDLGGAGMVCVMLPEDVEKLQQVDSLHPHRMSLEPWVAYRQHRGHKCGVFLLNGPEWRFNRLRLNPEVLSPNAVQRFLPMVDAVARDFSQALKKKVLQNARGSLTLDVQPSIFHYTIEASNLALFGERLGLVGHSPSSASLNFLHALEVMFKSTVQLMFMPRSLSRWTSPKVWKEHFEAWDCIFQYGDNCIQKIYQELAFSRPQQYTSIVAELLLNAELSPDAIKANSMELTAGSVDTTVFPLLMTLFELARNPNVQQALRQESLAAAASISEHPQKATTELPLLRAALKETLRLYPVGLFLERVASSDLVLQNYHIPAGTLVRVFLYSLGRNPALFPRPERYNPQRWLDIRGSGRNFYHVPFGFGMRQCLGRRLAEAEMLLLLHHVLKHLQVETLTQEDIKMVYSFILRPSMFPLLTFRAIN

Cytochrome P450 3A4 = Cytochrome P450 3A4 (Homo sapiens, UniProt P08684); experiment: Binding affinity for progesterone 6-beta-hydroxylase of hepatic microsomes; assay type: ADME
Chain of Cytochrome P450 3A4 (P08684 whole entry): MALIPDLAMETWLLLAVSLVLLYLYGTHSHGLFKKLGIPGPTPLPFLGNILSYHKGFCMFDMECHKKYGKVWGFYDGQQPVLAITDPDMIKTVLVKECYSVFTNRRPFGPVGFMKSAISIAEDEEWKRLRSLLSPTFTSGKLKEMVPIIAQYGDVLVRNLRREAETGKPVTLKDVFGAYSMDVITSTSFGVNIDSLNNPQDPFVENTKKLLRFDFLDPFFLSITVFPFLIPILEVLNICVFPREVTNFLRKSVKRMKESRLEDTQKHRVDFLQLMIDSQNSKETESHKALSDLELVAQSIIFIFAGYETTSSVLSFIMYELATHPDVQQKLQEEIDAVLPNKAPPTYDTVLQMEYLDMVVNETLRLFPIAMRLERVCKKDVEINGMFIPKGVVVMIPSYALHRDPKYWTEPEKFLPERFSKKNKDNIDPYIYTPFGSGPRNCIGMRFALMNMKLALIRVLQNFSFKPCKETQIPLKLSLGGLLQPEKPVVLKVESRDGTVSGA

Aromatase = target: T3, Aromatase (Homo sapiens, UniProt P11511); experiment: Binding affinity for Cytochrome P450 19A1
T3 sequence (P11511 whole entry): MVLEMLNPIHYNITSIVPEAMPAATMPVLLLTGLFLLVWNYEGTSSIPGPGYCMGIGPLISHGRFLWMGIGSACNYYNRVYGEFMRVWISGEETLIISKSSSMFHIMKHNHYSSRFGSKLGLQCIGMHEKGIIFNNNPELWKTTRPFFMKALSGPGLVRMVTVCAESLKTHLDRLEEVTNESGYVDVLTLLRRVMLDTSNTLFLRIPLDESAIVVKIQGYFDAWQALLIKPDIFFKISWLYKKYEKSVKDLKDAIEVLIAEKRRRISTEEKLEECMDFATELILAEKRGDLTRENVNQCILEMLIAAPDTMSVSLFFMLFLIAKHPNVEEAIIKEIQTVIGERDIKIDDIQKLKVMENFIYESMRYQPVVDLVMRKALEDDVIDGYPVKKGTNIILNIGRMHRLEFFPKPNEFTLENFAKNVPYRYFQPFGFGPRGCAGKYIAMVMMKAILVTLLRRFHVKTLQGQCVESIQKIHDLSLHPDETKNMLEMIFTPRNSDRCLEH

Cricetinae gen. sp. [4] = experiment: Percentage lowering of the total serum cholesterol in male hamsters at a dose of 10 […] orally administered for 3 days; assay type: functional, Cricetulus griseus
Cricetinae gen. sp. [5] = experiment: Effect on total serum cholesterol in male hamsters at a dose of 100 mg/kg orally administered for 3 days; assay type: functional, Cricetulus griseus; settings: route oral
Cricetinae gen. sp. [6] = experiment: Effect on total serum cholesterol in male hamsters at a dose of 30 mg/kg orally administered for 3 days; assay type: functional, Cricetulus griseus; settings: route oral
Cricetinae gen. sp. [7] = experiment: Percentage lowering of the total serum cholesterol in male hamsters at a dose of 30 mg/dL orally administered for 3 days; assay type: functional, Cricetulus griseus
Cricetinae gen. sp. [8] = experiment: Percentage lowering of the total serum cholesterol in male hamsters at a dose of 100 […] orally administered for 3 days; assay type: functional, Cricetulus griseus
[9] = target: T1, Steroid 17-alpha-hydroxylase/17,20 lyase; experiment: Binding affinity for progesterone 17-alpha,20-lyase
Cricetinae gen. sp. [10] = experiment: Percentage lowering of the total serum cholesterol in male hamsters at a dose of 50 mg/dL orally administered for 14 days; assay type: functional, Cricetulus griseus
Cricetinae gen. sp. [11] = experiment: Effect on total serum cholesterol in male hamsters at a dose of 25 mg/kg orally administered for 14 days; assay type: functional, Cricetulus griseus; settings: route oral
[12] = target: T4, Lanosterol 14-alpha demethylase (Rattus norvegicus, UniProt Q64654); experiment: Inhibition of lanosterol 14-alpha-demethylase of rat hepatic microsomes
T4 sequence (Q64654 whole entry): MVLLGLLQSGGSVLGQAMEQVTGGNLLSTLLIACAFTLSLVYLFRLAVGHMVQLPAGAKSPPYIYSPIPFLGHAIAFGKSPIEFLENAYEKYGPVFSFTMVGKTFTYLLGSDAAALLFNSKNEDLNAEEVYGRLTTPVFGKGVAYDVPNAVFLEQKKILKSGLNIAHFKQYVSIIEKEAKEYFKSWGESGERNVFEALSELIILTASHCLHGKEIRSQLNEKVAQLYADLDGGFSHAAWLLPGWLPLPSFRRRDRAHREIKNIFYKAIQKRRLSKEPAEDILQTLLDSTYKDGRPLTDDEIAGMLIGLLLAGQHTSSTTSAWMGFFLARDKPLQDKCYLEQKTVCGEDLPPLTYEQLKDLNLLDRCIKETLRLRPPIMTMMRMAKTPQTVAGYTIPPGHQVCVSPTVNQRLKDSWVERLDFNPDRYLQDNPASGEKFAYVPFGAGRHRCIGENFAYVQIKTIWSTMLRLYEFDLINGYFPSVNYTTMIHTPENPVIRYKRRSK

Cricetinae gen. sp. [13] = experiment: Percentage lowering of the total serum cholesterol in male hamsters at a dose of 100 […] orally administered for 14 days; assay type: functional, Cricetulus griseus
Cricetinae gen. sp. [14] = experiment: Effect on total serum cholesterol in male hamsters at a dose of 200 mg/kg orally administered for 14 days; assay type: functional, Cricetulus griseus; settings: route oral
Cricetinae gen. sp. [15] = experiment: Effect on total serum cholesterol in male hamsters at a dose of 50 mg/kg orally administered for 14 days; assay type: functional, Cricetulus griseus; settings: route oral
Cricetinae gen. sp. [16] = experiment: Percentage increase of the total serum cholesterol in male hamsters at a dose of 25 […] orally administered for 14 days; assay type: functional, Cricetulus griseus
Cricetinae gen. sp. [17] = experiment: Percentage lowering of the total serum cholesterol in male hamsters at a dose of 200 […] orally administered for 14 days; assay type: functional, Cricetulus griseus
Cricetinae gen. sp. [18] = experiment: Effect on total serum cholesterol in male hamsters at a dose of 100 mg/kg orally administered for 14 days; assay type: functional, Cricetulus griseus; settings: route oral
Cricetinae gen. sp. [19] = experiment: Effect on total serum cholesterol in male hamsters at a dose of 10 mg/kg orally administered for 14 days; assay type: functional, Cricetulus griseus; settings: route oral
Cricetinae gen. sp. [20] = experiment: Effect on total serum cholesterol in male hamsters at a dose of 5 mg/kg orally administered for 14 days; assay type: functional, Cricetulus griseus; settings: route oral
Cricetinae gen. sp. [21] = experiment: Percentage lowering of the total serum cholesterol in male hamsters at a dose of 5 mg/dL orally administered for 14 days; assay type: functional, Cricetulus griseus
Cricetinae gen. sp. [22] = experiment: Percentage lowering of the total serum cholesterol in male hamsters at a dose of 25 mg/dL orally administered for 14 days; assay type: functional, Cricetulus griseus
[23] = Inhibition of lanosterol 14-alpha-demethylation in hepatic microsomes from human; assay type: functional, Liver
[24] = Inhibition of lanosterol 14-alpha-demethylation in hepatic microsomes from rat; assay type: functional, Liver
Cricetinae gen. sp. [25] = experiment: Percentage lowering of the total serum cholesterol in male hamsters at a dose of 10 […] orally administered for 14 days; assay type: functional, Cricetulus griseus
[26] = Inhibition of lanosterol 14-alpha-demethylation in hepatic microsomes from hamster; assay type: functional, Cricetulus griseus, Liver
Cricetinae gen. sp. [27] = experiment: Percentage increase of the total serum cholesterol in male hamsters at a dose of 10 […] orally administered for 14 days; assay type: functional, Cricetulus griseus
Cricetinae gen. sp. [28] = experiment: Effect on total serum cholesterol in male hamsters at a dose of 60 mg/kg orally administered for 3 days; assay type: functional, Cricetulus griseus; settings: route oral
Cricetinae gen. sp. [29] = experiment: Percentage lowering of the total serum cholesterol in male hamsters at a dose of 60 […] orally administered for 3 days; assay type: functional, Cricetulus griseus

| SMILES | IC50 (Homo sapiens) [nM] | TC (Cricetinae gen. sp. [1]) [mg/dL] | Ki [2] [nM] | Ki [3] [nM] | Ki (Cytochrome P450 3A4) [nM] | Ki (Aromatase) [nM] | Lowering (Cricetinae gen. sp. [4]) [%] | TC (Cricetinae gen. sp. [5]) [mg/dL] | TC (Cricetinae gen. sp. [6]) [mg/dL] | Lowering (Cricetinae gen. sp. [7]) [%] | Lowering (Cricetinae gen. sp. [8]) [%] | Ki [9] [nM] | Lowering (Cricetinae gen. sp. [10]) [%] | TC (Cricetinae gen. sp. [11]) [mg/dL] | Lowering (Cricetinae gen. sp. [13]) [%] | TC (Cricetinae gen. sp. [15]) [mg/dL] | Increase (Cricetinae gen. sp. [16]) [%] | TC (Cricetinae gen. sp. [18]) [mg/dL] | TC (Cricetinae gen. sp. [19]) [mg/dL] | other results |
| --- | --- | --- | --- | --- | --- | --- | --- | --- | --- | --- | --- | --- | --- | --- | --- | --- | --- | --- | --- | --- |
| Nc1ccc(SC[C@H]2CO[C@@](CCc3ccc(Cl)cc3)(Cn3ccnc3)O2)cc1 | 8 | 105.7 | 109 | 15 | 33 | 13 | 5 | 86 | 96.4 | 13 | 22 | 54 | – | – | – | – | – | – | – | – |
| CC(=O)N1CCN(c2ccc(OCC3COC(Cn4ccnc4)(c4ccc(Cl)cc4Cl)O3)cc2)CC1 (stereo not given) [KETOCONAZOLE] | 37 | – | – | – | – | – | – | – | – | – | – | – | 6 | 125.2 | 11 | 111.4 | 6 | 105 | – | Ki [12]: 65 nM; TC (Cricetinae gen. sp. [14]): 83.1 mg/dL; Lowering (Cricetinae gen. sp. [17]): 30% |
| Nc1ccc(SC[C@@H]2CO[C@](CCc3ccc(Cl)cc3)(Cn3ccnc3)O2)cc1 [AZALANSTAT] | 0.09 | 85.1 | 1620 | 35 | 28 | 7.6 | 23 | 41.8 | 71 | 36 | 62 | 447 | 37 | 82.9 | – | 74.7 | – | – | 104 | TC (Cricetinae gen. sp. [20]): 115.5 mg/dL; Lowering (Cricetinae gen. sp. [21]): 2%; Lowering (Cricetinae gen. sp. [22]): 30%; Ki [23]: 0.79 nM; Ki [24]: 2.5 nM; Lowering (Cricetinae gen. sp. [25]): 12%; Ki [26]: 1.4 nM |
| Nc1ccc(SC[C@@H]2CO[C@@](CCc3ccc(Cl)cc3)(Cn3ccnc3)O2)cc1 | – | – | – | – | – | – | – | – | – | – | – | – | 6 | 125.8 | 4 | 112.4 | 6 | 113.3 | 125.2 | Increase (Cricetinae gen. sp. [27]): 6%; TC (Cricetinae gen. sp. [28]): 120.4 mg/dL; Lowering (Cricetinae gen. sp. [29]): 15% |

Source: ChEMBL document CHEMBL1127068, “Selective inhibition of mammalian lanosterol 14 alpha-demethylase: a possible strategy for cholesterol lowering” (J Med Chem, 1993)
